Data on 9 compounds can be found in ChEMBL document CHEMBL1201862, “PubChem BioAssay data set” (2004).

The AC50 is the concentration at which the activity in the assay is half-maximal. As a reminder, the EC50 is the concentration that produces a half-maximal response.

Experiment [1] has as its target T1, Polyadenylate-binding protein 1 (Homo sapiens, UniProt P11940). The experiment is described as follows: MLLE binding blockers, Cy5 peptide tracer – biochemical, fluorescence polarization, Cy5-PAM2 peptide, secondary, miRNA deadenylation inhibitor project, dose response (AID 602260). Format: functional. To be noted: read-out: IC50_Mean. On the technique in general: Fluorescence polarisation rises when a labelled molecule tumbles more slowly, as on binding a larger partner.

For experiment [2], the target named is T1, Polyadenylate-binding protein 1. The experiment is described as follows: MLLE domain peptide-binding blockers, IC50 – biochemical, fluorescence polarization, FITC-PAM2 peptide, dose response (AID 602259). Format: functional. To be noted: read-out: IC50_Mean.
Experiment [3] has as its target T2, Mannose-6-phosphate isomerase (Homo sapiens, UniProt P34949).
T2 sequence (P34949 whole entry): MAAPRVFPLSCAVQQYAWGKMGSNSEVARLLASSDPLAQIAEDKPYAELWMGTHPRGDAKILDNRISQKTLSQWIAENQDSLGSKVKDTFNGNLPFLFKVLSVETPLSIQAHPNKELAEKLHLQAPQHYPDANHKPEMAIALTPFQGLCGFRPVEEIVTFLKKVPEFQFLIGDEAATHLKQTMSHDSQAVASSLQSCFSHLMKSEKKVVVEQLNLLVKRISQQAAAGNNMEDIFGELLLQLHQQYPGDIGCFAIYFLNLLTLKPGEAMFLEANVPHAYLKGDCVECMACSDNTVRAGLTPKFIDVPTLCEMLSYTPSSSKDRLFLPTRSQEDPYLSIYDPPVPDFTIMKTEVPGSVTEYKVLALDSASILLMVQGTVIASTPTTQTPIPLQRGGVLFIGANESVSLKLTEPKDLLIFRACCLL
The experiment is described as follows: MPI inhibition at elevated mannose 6-phosphate – biochemical, fluorescence intensity, high mannose 6-phosphate, primary screen (AID 1220).

The target in another experiment is Estrogen receptor beta (Homo sapiens, UniProt Q92731). The experiment is described as follows: blockers of SRC-3 recruitment to ERβ – biochemical, ELISA, streptavidin-HRP readout, orthogonal assay, confirmation (AID 1060).
Chain of Estrogen receptor beta (Q92731 whole entry): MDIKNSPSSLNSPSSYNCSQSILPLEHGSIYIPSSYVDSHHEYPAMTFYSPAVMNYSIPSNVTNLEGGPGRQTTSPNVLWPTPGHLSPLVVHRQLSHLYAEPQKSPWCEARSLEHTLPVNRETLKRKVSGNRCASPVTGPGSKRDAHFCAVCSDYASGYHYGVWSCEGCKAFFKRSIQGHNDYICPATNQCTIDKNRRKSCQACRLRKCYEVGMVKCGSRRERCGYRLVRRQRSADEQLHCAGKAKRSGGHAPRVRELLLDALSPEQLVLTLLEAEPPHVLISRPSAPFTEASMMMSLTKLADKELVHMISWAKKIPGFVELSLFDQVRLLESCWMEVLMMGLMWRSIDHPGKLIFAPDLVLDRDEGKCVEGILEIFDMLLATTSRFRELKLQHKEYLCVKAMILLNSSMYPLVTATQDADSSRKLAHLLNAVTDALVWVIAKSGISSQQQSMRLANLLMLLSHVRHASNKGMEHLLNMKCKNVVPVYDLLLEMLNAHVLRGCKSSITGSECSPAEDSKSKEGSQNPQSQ
Another experiment has as its target Nonstructural protein 1 (Influenza A virus, UniProt Q194T2). It counts as functional, Influenza A virus (A/California/07/2009(H1N1)).
Experiment [4] concerns the target Eukaryotic translation initiation factor 4E (Mus musculus, UniProt P63073). The experiment is described as follows: blockers of eIF4G binding by eIF4E – biochemical, TR-FRET, dose response (AID 855).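 Also: potency for disrupting eIF4E binding to eIF4GI seen as loss of FRET.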 Format: functional.
The target in another experiment is T3, Hexokinase HKDC1 (Homo sapiens, UniProt Q2TB90).
T3 sequence (Q2TB90 whole entry): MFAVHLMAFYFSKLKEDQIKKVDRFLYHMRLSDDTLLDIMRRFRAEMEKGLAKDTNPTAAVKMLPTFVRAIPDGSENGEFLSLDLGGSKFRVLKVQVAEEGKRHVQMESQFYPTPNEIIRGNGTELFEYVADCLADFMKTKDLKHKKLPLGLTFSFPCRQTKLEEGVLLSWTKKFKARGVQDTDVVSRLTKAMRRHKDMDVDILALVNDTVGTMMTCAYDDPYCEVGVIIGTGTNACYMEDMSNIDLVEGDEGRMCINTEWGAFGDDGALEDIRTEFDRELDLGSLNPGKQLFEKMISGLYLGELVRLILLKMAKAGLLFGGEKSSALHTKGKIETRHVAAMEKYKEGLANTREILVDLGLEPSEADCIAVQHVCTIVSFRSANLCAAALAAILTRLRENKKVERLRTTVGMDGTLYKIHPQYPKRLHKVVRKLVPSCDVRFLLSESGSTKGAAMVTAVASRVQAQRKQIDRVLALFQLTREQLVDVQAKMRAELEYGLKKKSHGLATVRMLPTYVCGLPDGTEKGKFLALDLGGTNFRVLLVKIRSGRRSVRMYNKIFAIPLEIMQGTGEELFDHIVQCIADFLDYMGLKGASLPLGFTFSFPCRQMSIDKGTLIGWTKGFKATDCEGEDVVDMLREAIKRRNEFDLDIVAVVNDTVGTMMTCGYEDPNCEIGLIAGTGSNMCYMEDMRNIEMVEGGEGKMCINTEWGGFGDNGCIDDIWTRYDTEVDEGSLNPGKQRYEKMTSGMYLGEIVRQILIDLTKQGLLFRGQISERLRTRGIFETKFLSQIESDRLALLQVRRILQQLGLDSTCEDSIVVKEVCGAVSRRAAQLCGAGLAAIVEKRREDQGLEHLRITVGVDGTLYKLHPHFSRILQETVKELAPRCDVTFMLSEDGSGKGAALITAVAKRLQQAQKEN
In words: inhibition of HKDC1 glucose phosphorylation – biochemical, W721R variant, dose response (AID 504729). Format: functional.

The target of experiment [5] is T4, Acyl-homoserine lactone acylase PvdQ (Pseudomonas aeruginosa (strain LESB58), UniProt Q9I194).
T4 sequence (Q9I194 whole entry): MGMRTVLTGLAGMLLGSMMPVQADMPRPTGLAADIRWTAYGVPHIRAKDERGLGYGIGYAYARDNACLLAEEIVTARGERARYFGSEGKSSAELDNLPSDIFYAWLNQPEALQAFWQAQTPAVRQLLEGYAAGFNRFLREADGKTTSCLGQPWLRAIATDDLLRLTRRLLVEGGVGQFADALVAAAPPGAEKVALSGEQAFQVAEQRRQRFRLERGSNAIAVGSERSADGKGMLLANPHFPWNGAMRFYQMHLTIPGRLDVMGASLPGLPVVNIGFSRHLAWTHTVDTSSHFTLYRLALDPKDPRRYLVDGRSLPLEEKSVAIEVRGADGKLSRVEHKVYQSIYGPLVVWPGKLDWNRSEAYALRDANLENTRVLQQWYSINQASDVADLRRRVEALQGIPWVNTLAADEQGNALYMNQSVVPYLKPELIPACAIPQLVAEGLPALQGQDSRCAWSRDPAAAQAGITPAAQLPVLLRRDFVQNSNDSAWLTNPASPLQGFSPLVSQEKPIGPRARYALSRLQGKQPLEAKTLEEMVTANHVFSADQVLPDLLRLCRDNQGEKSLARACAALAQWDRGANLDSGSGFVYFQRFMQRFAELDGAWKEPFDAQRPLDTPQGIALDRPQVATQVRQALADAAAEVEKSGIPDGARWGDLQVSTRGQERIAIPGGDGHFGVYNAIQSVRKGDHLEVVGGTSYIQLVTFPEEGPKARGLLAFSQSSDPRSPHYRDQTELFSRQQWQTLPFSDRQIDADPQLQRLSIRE
The experiment is described as follows: PvdQ acylase enzyme activity blockers – biochemical, fluorescence, plate reader and imaging, cherry-picks, dose response (AID 493231).

Experiment [6] deals with T5, Alkaline phosphatase, tissue-nonspecific isozyme (Homo sapiens, UniProt P05186).
T5 sequence (P05186 whole entry): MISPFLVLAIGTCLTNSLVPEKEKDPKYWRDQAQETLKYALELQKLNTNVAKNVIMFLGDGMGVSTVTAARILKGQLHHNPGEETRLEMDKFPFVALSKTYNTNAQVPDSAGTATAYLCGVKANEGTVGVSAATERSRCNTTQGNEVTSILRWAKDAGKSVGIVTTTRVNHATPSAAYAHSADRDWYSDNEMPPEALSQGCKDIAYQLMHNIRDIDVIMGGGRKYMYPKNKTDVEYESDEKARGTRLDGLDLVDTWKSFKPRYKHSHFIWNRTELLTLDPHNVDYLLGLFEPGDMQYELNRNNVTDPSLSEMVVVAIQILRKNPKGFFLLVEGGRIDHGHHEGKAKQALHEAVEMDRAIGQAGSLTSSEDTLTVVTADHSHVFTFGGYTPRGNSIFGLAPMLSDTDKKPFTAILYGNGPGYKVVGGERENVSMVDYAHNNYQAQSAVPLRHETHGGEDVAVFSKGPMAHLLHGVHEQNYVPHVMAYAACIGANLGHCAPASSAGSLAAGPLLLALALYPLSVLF
The experiment is described as follows: potency against alkaline phosphatase TNAP – biochemical, luminescent, dose response, SAR follow-up (AID 1056).

Experiment [7] addresses Glyceraldehyde-3-phosphate dehydrogenase (Homo sapiens, UniProt P04406).
Experiment [8] addresses DNA dC->dU-editing enzyme APOBEC-3G (Homo sapiens, UniProt Q9HC16). The experiment is described as follows: Dose Response confirmation of small molecule APOBEC3G DNA Deaminase Inhibitors via a fluorescence-based single-stranded DNA deaminase assay. [Related pubchem assays (depositor defined):AID493012, AID493028]. Format: functional.
Experiment [9] can be described thus: Luminescence Cell-Based Dose Retest to Confirm Inhibitors of Cancer Stem Cells. [Related pubchem assays (depositor defined):AID2717, AID2721]. It counts as functional. The following applies: Homo sapiens.
The next experiment has as its target Trypsin (Sus scrofa, UniProt P00761). In words: trypsin protease activity blockade – biochemical, quenched peptide fluorescence, cherry-pick, selectivity assay for Rce1 protease inhibitor project, dose response (AID 488789).
The target in another experiment is T6, CAAX prenyl protease 2 (Saccharomyces cerevisiae S288c, UniProt Q03530).
T6 sequence (Q03530 whole entry): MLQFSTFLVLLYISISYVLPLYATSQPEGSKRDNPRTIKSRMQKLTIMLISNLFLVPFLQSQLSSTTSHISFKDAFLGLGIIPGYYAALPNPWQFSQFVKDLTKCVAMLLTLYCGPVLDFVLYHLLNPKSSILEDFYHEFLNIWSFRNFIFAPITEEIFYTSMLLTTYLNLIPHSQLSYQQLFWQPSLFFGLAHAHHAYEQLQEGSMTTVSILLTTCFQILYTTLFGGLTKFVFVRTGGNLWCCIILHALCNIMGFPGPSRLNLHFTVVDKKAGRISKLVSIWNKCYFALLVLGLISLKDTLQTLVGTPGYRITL
Format: biochemical.

The subject of experiment [10] is HEK293. In words: inhibition of NOD1-driven NF-kB reporter – cell-based, luminescence, uHTS, primary screen (AID 1578). Format: functional. To be noted: Homo sapiens.
The subject of experiment [11] is HEK293. In words: NOD2 signaling inhibitors in MDP-stimulated cells, cell-based, uHTS, luminescence (AID 2001). It counts as functional. To be noted: Homo sapiens.
The target of experiment [12] is Nucleotide-binding oligomerization domain-containing protein 2 (Homo sapiens, UniProt Q9HC29). In words: inhibition of NOD2-driven NF-kB reporter – cell-based, luminescence, uHTS, HEK293 (AID 1566). It counts as functional.
Chain of Nucleotide-binding oligomerization domain-containing protein 2 (Q9HC29 whole entry, the tested form may be a part): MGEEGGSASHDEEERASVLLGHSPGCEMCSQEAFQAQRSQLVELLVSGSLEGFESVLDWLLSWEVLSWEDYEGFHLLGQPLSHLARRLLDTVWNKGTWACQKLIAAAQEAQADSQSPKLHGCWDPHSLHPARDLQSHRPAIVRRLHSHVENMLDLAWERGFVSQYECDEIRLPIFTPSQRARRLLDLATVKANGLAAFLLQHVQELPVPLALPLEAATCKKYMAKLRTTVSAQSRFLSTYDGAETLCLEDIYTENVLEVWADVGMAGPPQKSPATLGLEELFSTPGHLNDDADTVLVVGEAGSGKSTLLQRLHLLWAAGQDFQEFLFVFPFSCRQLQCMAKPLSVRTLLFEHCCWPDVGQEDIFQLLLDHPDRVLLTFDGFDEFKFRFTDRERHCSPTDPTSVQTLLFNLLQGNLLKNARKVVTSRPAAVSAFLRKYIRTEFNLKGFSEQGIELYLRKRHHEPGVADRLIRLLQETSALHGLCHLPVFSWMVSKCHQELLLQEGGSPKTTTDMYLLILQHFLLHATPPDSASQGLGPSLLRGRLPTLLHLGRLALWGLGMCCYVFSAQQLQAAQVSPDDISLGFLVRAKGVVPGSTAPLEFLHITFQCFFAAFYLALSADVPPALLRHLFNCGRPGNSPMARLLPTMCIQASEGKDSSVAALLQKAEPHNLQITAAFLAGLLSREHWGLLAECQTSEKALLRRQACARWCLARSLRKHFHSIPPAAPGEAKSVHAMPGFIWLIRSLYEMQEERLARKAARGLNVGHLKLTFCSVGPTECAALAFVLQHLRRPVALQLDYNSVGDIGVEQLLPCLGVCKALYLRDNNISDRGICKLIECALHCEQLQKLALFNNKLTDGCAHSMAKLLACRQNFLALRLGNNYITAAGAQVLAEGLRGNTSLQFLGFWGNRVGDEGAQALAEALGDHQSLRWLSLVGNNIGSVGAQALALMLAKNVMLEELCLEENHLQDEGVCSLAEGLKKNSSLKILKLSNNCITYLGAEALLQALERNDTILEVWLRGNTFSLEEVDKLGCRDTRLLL
The subject of experiment [13] is HEK293. The experiment is described as follows: cells. To be noted: Homo sapiens. Format: functional, cell-based.
Experiment [14] concerns HEK293. The experiment is described as follows: cells. Format: functional, cell-based. To be noted: Homo sapiens. This is another data set of the same source.
Experiment [15] addresses T7, Heat shock factor protein 1 (Mus musculus, UniProt P38532).
T7 sequence (P38532 whole entry): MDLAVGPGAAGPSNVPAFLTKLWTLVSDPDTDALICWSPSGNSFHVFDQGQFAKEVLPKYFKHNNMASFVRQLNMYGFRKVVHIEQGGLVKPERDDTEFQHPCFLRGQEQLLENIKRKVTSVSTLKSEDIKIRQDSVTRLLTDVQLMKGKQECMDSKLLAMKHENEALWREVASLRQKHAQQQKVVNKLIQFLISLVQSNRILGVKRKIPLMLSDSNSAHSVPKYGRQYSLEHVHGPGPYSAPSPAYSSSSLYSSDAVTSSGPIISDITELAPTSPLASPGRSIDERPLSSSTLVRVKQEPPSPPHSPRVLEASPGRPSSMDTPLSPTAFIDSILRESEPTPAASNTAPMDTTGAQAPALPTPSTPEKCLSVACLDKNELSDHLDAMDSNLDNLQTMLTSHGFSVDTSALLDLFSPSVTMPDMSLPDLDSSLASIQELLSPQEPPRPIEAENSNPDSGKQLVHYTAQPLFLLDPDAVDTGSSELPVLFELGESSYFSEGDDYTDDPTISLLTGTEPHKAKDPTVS
The experiment is described as follows: decrease of HSF1-responsive luciferase luminescence – cell-based, NIH3T3, dose retest, confirmation (AID 2382).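 Also: NIH3T3 fibroblasts with HSF1-driven luciferase reporter stressed by proteasome inhibitor MG132; luminescence from HSF1-driven luciferase expression after 8 hours of MG132 stress.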 It counts as functional.

Calls of active or inactive are those of the source. A value given as a limit tells only on which side of the number the result lay.

Chain of Glyceraldehyde-3-phosphate dehydrogenase (P04406 whole entry): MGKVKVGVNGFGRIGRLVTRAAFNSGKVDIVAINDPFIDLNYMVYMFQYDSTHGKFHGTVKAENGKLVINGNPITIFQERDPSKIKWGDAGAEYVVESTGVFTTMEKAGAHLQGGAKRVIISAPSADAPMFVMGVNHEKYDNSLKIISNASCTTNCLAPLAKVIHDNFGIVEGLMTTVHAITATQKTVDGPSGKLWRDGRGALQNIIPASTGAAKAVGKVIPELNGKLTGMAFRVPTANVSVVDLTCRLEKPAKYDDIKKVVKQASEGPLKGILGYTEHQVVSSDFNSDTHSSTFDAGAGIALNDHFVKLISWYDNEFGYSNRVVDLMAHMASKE
Chain of Eukaryotic translation initiation factor 4E (P63073 whole entry): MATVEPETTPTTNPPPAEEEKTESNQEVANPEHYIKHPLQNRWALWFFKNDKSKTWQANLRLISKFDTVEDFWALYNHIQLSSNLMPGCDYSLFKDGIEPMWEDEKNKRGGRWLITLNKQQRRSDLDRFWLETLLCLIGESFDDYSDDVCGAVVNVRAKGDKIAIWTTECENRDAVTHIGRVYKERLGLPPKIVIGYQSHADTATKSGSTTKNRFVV
T1 sequence (P11940 whole entry): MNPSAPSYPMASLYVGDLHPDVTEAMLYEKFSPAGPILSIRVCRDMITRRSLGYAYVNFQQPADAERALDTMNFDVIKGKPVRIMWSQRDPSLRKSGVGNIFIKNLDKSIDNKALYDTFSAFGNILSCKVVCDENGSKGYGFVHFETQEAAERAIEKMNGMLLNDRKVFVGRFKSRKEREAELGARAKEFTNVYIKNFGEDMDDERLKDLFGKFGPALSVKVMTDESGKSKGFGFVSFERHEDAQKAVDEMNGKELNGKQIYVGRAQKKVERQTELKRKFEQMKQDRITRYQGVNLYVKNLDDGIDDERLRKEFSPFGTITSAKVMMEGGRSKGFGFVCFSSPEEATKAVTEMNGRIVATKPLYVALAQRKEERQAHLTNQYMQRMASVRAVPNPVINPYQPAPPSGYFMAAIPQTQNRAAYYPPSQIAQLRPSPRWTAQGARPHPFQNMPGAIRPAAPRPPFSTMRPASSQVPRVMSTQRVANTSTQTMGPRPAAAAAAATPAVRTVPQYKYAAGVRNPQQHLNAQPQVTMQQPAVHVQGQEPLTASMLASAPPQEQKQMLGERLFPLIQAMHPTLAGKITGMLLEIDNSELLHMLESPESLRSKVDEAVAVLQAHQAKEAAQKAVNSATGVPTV
Chain of Trypsin (P00761 whole entry): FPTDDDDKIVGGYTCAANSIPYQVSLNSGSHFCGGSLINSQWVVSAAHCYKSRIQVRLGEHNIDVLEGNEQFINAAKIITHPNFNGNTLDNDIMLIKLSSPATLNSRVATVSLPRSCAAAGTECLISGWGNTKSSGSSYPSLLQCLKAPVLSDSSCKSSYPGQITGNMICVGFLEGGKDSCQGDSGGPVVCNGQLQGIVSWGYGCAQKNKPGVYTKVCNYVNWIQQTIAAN
Chain of Nonstructural protein 1 (Q194T2 whole entry): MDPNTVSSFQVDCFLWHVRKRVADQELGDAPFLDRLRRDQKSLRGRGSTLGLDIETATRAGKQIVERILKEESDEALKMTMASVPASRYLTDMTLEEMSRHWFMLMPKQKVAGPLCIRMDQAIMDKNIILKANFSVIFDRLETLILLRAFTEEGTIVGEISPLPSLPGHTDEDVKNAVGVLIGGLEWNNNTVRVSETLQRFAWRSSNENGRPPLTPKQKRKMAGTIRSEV
Chain of DNA dC->dU-editing enzyme APOBEC-3G (Q9HC16 whole entry): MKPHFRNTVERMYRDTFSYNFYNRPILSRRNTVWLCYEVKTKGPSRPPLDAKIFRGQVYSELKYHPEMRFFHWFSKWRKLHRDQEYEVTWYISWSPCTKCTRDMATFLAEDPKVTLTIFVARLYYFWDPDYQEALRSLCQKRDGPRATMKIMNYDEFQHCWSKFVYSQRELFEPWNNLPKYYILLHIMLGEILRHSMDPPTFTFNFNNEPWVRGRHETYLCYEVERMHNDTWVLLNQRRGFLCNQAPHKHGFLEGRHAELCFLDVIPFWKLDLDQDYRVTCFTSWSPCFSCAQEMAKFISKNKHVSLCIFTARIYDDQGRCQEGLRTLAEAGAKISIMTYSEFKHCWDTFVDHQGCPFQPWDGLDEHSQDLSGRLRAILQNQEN

On to `CCOC(=O)N1CCN(C(c2cccnc2)c2ccc3cccnc3c2O)CC1` (centres undefined), for which the IC50 is > 66 µM (inactive) in [1]; > 66 µM (inactive) in [2]; 32 µM (active) in experiment [3]; 10.6 µM (not active) at Estrogen receptor beta; 14.6 µM (active) at Nonstructural protein 1; > 64 µM (inactive) in [4].
Take `COc1ncnc2c1oc1nc(C(C)C)c3c(c12)CC(C)(C)OC3`: on Hexokinase HKDC1, the IC50 is 11.7 µM (active).
Take `CC(C)c1nc2oc3c(O)ncnc3c2c2c1COC(C)(C)C2`: on Hexokinase HKDC1, the IC50 was 8.22 µM (active).
In the case of `O=C(OCc1cc(=O)n2c(n1)sc1ccccc12)c1ccc(O)cc1O`, the IC50 in experiment [4] was 50 µM (inactive).
As to `COC(=O)c1cc(-c2ccc(Br)cc2)on1`, the concentration at half-maximal activity (AC50) in [5] was 4.37 µM (active). Moreover, the IC50 in [6] was > 100 µM (inactive); in experiment [7], > 100 µM (not active).
Turning to `COc1ccc(Br)cc1S(=O)(=O)n1cc(C(N)=O)c2ccccc21`, the IC50 in experiment [6] was > 100 µM (inactive); in [7], > 100 µM (not active).
Turning to `CCn1c(N)c(C(=O)NCC2CCCO2)sc1=S` (centres undefined), in experiment [8], the IC50 was 66.6 µM (active).
Take `CS(=O)(=O)Nc1ccccc1C(=O)Nc1cccc(Cl)c1`: the half-maximal activity concentration (AC50) in [9] was 45.2 µM (active); at Trypsin, 6.73 µM (active); on CAAX prenyl protease 2 it was 21.8 µM (active).
Consider `CCOc1ccccc1-n1c(SCC(=O)Nc2ccccc2C(=O)O)nc2ccccc2c1=O`, for which the EC50 with HEK293 [10] was > 20 µM (inactive); in [12], > 20 µM (inactive); in experiment [15], 4.46 µM (active). Moreover, the IC50 with HEK293 [11], in the experiment with HEK293 [13] and with HEK293 [14] was > 20 µM (inactive) in each case.
